Results published in PMC9841527 (Journal of Medicinal Chemistry, 2022).

How the values were obtained:
CamA [1] = target: T1, CamA (Clostridioides difficile, UniProt Q183J3); assay: Isothermal titration calorimetry; format: binding
T1 sequence (Q183J3 1-577): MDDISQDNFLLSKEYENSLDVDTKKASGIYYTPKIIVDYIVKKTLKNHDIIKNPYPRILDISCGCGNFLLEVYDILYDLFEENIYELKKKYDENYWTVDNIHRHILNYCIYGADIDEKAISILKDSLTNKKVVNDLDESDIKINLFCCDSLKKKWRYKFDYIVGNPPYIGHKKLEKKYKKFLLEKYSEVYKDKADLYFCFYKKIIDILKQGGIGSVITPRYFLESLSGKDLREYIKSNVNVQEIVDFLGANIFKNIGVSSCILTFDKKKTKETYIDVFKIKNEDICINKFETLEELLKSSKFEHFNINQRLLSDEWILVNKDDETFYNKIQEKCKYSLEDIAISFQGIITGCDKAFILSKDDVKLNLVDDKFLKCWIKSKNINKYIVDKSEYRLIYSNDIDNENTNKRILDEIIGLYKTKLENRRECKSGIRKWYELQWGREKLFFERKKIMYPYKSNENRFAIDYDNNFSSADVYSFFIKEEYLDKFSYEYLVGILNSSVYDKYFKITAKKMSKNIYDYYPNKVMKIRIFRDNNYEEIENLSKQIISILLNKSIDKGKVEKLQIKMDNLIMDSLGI

CamA [2] = target: T1, CamA; format: biochemical
[3] = target: T2, A1 adenosine receptor (A1AR) (Homo sapiens, UniProt P30542); assay: A1AR agonist radioligand binding assay; details: compound 10 μM, [3H]CCPA 1 nM, transfected CHO cell membranes
T2 sequence (P30542 1-326): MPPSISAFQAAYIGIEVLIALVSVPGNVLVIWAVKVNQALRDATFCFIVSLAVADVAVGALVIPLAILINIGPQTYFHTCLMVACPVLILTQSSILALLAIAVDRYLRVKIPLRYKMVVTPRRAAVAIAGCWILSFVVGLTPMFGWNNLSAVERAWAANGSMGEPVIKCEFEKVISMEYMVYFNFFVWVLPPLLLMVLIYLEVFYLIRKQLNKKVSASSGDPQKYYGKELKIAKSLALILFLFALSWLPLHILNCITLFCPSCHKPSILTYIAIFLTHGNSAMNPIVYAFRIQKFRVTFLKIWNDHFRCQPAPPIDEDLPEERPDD

DOT1L = DOT1L (Homo sapiens, UniProt Q8TEK3); assay: Selectivity assay, DOT1L; format: biochemical; details: compound 10 μM, 3H-SAM 1 μM
PRMT1 = PRMT1 (Homo sapiens, UniProt Q99873); assay: Selectivity assay, PRMT1; format: biochemical; details: compound 10 μM, 3H-SAM 1 μM
G9a = target: T3, G9a (Homo sapiens, UniProt Q96KQ7); assay: Selectivity assay, G9a; format: biochemical; details: compound 10 μM, 3H-SAM 1 μM
T3 sequence (Q96KQ7 1-1210): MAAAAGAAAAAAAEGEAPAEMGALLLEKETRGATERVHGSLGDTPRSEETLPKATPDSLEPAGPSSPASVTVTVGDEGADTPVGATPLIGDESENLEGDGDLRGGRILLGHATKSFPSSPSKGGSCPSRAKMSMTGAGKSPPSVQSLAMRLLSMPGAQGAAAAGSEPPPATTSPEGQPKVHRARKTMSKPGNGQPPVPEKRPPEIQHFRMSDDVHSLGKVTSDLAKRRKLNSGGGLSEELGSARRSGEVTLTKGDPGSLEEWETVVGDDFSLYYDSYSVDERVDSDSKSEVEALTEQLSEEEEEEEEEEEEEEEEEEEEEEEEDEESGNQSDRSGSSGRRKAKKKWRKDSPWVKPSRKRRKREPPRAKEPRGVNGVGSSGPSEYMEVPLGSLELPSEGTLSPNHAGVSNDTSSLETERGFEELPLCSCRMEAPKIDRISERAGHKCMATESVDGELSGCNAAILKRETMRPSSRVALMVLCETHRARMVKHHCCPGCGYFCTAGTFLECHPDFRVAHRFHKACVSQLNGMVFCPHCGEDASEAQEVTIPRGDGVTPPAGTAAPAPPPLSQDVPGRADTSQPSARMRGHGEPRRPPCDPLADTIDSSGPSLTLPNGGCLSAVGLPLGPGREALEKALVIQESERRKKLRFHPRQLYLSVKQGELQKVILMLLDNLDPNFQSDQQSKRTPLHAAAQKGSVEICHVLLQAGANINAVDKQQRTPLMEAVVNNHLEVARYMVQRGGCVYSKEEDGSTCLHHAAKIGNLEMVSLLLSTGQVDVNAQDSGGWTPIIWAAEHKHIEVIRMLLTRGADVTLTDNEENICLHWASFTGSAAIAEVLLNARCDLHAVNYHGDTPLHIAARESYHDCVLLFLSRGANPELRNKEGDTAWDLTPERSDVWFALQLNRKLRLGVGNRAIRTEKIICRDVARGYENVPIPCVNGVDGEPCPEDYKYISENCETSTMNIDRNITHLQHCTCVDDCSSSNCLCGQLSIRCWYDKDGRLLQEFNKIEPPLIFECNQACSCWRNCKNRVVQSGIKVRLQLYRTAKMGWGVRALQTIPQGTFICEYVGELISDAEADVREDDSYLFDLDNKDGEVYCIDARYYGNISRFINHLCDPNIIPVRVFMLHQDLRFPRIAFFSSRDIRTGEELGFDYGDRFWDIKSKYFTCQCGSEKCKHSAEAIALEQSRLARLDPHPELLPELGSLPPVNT

MettL3-MettL14 = MettL3-MettL14 (Homo sapiens, UniProt Q86U44); assay: Selectivity assay, MettL3-MettL14; format: biochemical; details: [I] = 10 μM, [SAM] = 20 μM, 5 mM NaCl, or CamA conditions
PCIF1 = PCIF1 (Homo sapiens, UniProt Q9H4Z3); format: biochemical
Dam = target: T4, Dam (Escherichia coli, UniProt P0AEE8); format: biochemical
T4 sequence (P0AEE8 1-278): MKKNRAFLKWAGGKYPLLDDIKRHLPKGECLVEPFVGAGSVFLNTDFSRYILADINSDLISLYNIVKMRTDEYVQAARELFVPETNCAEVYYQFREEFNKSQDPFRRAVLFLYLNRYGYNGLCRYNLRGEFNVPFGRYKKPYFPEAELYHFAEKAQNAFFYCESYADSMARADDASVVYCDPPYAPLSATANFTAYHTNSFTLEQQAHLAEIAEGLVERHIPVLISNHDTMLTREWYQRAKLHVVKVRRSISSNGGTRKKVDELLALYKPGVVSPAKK

CcrM = CcrM (Caulobacter vibrioides, UniProt P0CAW2); format: biochemical, Caulobacter crescentus
Dnmt3a-Dnmt3L = Dnmt3a-Dnmt3L (Mus musculus, UniProt O88508); format: biochemical

Sequence of MettL3-MettL14 (Q86U44 whole entry): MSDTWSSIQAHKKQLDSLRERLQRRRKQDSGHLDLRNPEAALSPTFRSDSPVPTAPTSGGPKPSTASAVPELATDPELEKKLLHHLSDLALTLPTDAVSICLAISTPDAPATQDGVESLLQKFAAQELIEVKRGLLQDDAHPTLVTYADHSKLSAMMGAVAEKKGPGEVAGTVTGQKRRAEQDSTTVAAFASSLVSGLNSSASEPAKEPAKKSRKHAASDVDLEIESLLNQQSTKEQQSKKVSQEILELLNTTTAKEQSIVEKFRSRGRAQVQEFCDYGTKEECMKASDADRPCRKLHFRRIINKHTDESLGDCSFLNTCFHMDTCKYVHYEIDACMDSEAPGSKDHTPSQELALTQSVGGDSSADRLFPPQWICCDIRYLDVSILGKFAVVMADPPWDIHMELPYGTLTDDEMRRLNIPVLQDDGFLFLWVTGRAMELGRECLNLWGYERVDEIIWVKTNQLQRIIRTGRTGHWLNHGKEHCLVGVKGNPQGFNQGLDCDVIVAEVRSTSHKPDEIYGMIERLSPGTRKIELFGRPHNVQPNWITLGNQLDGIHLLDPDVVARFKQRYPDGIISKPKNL
Sequence of MettL3-MettL14 (Q9HCE5 whole entry partner): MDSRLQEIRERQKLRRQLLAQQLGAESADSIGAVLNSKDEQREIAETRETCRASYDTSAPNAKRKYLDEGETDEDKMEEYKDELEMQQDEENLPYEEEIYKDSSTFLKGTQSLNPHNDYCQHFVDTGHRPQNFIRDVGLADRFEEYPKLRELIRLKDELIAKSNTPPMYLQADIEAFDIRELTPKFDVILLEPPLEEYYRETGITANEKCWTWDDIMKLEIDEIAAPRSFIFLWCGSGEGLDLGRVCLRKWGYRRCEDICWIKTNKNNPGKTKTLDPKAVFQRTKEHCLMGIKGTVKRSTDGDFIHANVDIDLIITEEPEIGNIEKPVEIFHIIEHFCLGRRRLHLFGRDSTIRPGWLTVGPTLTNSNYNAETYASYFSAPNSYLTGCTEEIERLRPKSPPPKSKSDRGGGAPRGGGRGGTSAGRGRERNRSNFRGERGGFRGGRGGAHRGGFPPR
Sequence of CcrM (P0CAW2 whole entry): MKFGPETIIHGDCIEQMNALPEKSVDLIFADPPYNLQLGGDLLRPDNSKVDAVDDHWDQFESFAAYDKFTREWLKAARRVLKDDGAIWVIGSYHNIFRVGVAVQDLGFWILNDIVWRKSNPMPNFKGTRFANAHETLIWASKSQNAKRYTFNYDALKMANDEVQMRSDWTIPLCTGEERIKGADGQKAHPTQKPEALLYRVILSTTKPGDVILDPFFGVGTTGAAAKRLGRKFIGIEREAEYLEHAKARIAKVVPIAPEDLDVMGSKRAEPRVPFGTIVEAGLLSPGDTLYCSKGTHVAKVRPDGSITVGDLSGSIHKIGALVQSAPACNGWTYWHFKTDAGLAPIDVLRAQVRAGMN
Sequence of PRMT1 (Q99873 whole entry): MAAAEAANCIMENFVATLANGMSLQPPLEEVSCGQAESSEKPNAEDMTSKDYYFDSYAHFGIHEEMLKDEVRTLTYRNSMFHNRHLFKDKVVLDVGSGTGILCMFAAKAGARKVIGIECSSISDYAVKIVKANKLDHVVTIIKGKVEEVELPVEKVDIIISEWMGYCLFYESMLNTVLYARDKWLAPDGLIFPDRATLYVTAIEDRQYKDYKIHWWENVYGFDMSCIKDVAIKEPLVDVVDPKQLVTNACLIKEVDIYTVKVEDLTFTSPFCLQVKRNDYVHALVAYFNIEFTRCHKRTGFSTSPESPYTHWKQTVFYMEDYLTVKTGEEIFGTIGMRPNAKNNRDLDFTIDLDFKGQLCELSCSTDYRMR
Sequence of PCIF1 (Q9H4Z3 whole entry): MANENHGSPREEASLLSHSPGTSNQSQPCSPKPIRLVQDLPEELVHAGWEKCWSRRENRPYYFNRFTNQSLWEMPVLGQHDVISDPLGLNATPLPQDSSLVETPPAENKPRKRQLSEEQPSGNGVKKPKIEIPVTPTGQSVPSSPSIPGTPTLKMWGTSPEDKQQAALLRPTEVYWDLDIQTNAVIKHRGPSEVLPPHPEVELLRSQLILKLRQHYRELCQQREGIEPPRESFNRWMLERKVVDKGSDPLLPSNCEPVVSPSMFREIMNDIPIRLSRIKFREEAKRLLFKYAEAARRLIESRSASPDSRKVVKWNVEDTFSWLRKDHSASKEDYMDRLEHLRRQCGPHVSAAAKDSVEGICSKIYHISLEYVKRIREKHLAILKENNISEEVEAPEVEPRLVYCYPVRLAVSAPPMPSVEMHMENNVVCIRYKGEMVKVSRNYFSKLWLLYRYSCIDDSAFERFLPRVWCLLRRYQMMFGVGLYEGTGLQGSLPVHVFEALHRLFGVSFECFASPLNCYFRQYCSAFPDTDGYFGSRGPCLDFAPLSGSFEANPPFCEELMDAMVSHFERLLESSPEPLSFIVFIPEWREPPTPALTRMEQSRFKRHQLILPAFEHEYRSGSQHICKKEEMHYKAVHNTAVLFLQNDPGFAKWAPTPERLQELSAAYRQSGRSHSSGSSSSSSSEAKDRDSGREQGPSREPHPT
Sequence of DOT1L (Q8TEK3 whole entry): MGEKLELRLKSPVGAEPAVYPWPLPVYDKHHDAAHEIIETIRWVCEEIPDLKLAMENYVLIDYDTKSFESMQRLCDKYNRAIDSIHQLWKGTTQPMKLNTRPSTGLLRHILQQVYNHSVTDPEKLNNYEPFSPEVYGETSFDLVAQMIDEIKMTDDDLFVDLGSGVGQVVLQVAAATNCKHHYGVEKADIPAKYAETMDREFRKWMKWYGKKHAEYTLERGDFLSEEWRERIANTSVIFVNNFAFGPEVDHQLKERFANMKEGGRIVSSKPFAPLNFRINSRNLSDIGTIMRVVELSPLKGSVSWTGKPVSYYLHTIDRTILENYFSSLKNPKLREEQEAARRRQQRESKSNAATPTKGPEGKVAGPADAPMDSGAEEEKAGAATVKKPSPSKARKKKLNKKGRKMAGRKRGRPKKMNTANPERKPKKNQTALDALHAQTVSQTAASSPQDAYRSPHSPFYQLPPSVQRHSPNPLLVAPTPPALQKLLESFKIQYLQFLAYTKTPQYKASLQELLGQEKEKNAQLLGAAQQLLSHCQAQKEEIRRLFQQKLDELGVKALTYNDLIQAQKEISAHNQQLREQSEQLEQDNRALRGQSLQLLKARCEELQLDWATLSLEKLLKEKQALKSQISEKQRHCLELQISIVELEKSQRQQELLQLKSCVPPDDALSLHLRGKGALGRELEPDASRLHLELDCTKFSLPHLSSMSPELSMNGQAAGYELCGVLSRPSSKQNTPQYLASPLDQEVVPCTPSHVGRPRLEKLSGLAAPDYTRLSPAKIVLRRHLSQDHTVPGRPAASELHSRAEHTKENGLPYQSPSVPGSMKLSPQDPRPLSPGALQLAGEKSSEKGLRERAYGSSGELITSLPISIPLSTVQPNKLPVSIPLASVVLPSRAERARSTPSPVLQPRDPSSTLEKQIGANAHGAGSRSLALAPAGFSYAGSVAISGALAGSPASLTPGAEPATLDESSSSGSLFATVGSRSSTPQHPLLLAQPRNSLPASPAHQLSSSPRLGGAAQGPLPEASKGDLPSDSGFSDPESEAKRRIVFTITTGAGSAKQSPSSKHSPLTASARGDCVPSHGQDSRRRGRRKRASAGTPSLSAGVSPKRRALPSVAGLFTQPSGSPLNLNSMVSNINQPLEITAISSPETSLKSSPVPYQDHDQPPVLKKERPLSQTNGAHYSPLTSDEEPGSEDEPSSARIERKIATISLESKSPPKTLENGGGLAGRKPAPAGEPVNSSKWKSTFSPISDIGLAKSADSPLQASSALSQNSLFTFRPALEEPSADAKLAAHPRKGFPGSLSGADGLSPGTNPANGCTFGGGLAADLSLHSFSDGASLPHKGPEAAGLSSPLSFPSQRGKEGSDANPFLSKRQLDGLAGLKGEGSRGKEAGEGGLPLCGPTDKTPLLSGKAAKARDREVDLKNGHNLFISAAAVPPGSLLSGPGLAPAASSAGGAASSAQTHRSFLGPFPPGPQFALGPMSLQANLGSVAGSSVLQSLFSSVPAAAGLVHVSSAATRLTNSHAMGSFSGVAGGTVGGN

Question: With “5′-methylthioadenosine [MTA, reference compound]” as the compound, how does the “enhanced binding, fold” value (CamA [1]; compared to sinefungin) read?
Answer: ~2 ×

Question: What about the “stronger binding, fold” value (CamA [1]; than adenosine) of the same compound?
Answer: > 7 ×

Question: What does the source list for `OC[C@H]1O[C@@H](n2cnc3c(NCc4ccc(O)cc4)ncnc32)[C@H](O)[C@@H]1O` [Compound 3]?
Answer: tighter binding in KD, fold (CamA [1]; compared to compound 2): 2.6 ×; improved IC50, fold (CamA [2]): ~2 ×

Question: `OC[C@H]1O[C@@H](n2cnc3c(NCCCc4ccccc4)ncnc32)[C@H](O)[C@@H]1O` [Compound 14, (2R,3S,4R,5R)-2-(Hydroxymethyl)-5-(6-((3-phenylpropyl)amino)-9H-purin-9-yl)tetrahydrofuran-3,4-diol] was tested. Which “lower KD value, fold” value (CamA [1]; compared to compound 1) did it give?
Answer: ~26 ×

Question: What about the “lower IC50 value, fold” value (CamA [2]) of the same compound?
Answer: ~21 ×

Question: `Nc1ccc(CCCNc2ncnc3c2ncn3[C@@H]2O[C@H](CO)[C@@H](O)[C@H]2O)cc1` [Compound 15, (2R,3R,4S,5R)-2-(6-((3-(4-Aminophenyl)propyl)amino)-9H-purin-9-yl)-5-(hydroxymethyl)tetrahydrofuran-3,4-diol] was tested. Which “enhanced binding, fold” value (CamA [1]; compared to 2 and 9) did it give?
Answer: 9–12 ×

Question: For `OC[C@H]1O[C@@H](n2cnc3c(NCCCCCCc4ccccc4)ncnc32)[C@H](O)[C@@H]1O` [Compound 21, (2R,3S,4R,5R)-2-(Hydroxymethyl)-5-(6-((6-phenylhexyl)amino)-9H-purin-9-yl)tetrahydrofuran-3,4-diol], which “relative inhibition of CamA activity” value (CamA [2]) is on record?
Answer: decreased the inhibition potency

Question: `CC(C)(C)OC(=O)NCCC1CCN(c2ncnc3c2ncn3[C@@H]2O[C@H](CO)[C@@H](O)[C@H]2O)CC1` [Compound 40, tert-Butyl-(2-(1-(9-((2R,3R,4S,5R)-3,4-dihydroxy-5-(hydroxymethyl)tetrahydrofuran-2-yl)-9H-purin-6-yl)piperidin-4-yl)ethyl)carbamate] was tested. Which CamA inhibition (CamA [2]) did it give?
Answer: loss of inhibition

Question: What about the “relative inhibition of CamA activity” value (CamA [2]) of the same compound?
Answer: loss of inhibition

Question: What does the source list for `CC(C)(C)OC(=O)N1CCC2(CCN(c3ncnc4c3ncn4[C@@H]3O[C@H](CO)[C@@H](O)[C@H]3O)CC2)C1` [Compound 41, tert-Butyl-8-(9-((2R,3R,4S,5R)-3,4-dihydroxy-5-(hydroxymethyl)tetrahydrofuran-2-yl)-9H-purin-6-yl)-2,8-diazaspiro[4.5]decane-2-carboxylate]?
Answer: CamA inhibition (CamA [2]): loss of inhibition; relative inhibition of CamA activity (CamA [2]): loss of inhibition

Question: `OC[C@H]1O[C@@H](n2cnc3c(NCCCC4CCNCC4)ncnc32)[C@H](O)[C@@H]1O` [Compound 42, (2R,3S,4R,5R)-2-(Hydroxymethyl)-5-(6-((3-(piperidin-4-yl)propyl)amino)-9H-purin-9-yl)tetrahydrofuran-3,4-diol] was tested. Which “lower potency in inhibiting CamA, fold” value (CamA [2]) did it give?
Answer: ~10 fold

Question: Which “inhibition of control radioligand specific binding, A1AR” value [3] does the source give for `OC[C@H]1O[C@@H](n2cnc3c(NC4CCCC4)ncnc32)[C@H](O)[C@@H]1O` [N^6-cyclopentyladenosine, reference compound] here?
Answer: completely abolished radioligand binding

Question: What does the source list for `Nc1ncnc2c1ncn2[C@@H]1O[C@H](CSCC[C@H](N)C(=O)O)[C@@H](O)[C@H]1O` [SAH, S-adenosyl-L-homocysteine, reference compound]?
Answer: inhibition of DOT1L (DOT1L): exhibited measurable inhibition; inhibition of PRMT1 (PRMT1): exhibited measurable inhibition; inhibition of G9a (G9a): exhibited measurable inhibition

Question: Which results are given for `CC(C)N(CCCNC(=O)Nc1ccc(C(C)(C)C)cc1)C[C@H]1O[C@@H](n2cc(Br)c3c(N)ncnc32)[C@H](O)[C@@H]1O` [SGC0946, reference compound]?
Answer: improved binding, fold in KD (CamA [1]; vs EPZ004777): ~3 ×; inhibition of CamA activity (CamA [2]): inhibits CamA activity completely; stronger inhibition, fold in IC50 (CamA [2]): ~9 ×

Question: How did the “inhibition of MettL3-MettL14” value (MettL3-MettL14) turn out when `O=C(NCc1cn2cc(CNCC3CCCCC3)ccc2n1)c1cc(=O)n2ccccc2n1` [STM2457, reference compound] was run?
Answer: inhibited

Question: What about the “effect on CamA activity” value (CamA [2]) of the same compound?
Answer: had no effect on CamA activity

Question: With `Nc1ncnc2c1ncn2[C@@H]1O[C@H](C[C@@H](N)CC[C@H](N)C(=O)O)[C@@H](O)[C@H]1O` [sinefungin, reference compound] as the compound, how does the “inhibition of PCIF1” value (PCIF1) read?
Answer: showed measurable inhibition

Question: And the “inhibition of Dam” value (Dam)?
Answer: showed measurable inhibition

Question: And the “effect on CamA activity” value (CamA [2])?
Answer: inhibiting CamA

Question: And the “inhibition of CcrM” value (CcrM)?
Answer: showed measurable inhibition

Question: What about the “inhibition of Dnmt3a-Dnmt3L” value (Dnmt3a-Dnmt3L) of the same compound?
Answer: showed measurable inhibition
